Measurements reported in patent US20260167935A1, “METHOD FOR CULTURING TONSIL-DERIVED MESENCHYMAL STEM CELLS USING N-ACETYLCYSTEINE (NAC)” (priority 2023, published 2026).

Key:
[1] = test system: tonsil-derived human MSCs; experiment: Cell viability after NAC pretreatment for 24 hours (determination of NAC pretreatment concentration); conditions: NAC 10 mM, FIG. 1
Protocol: In order to determine the concentration of NAC for pretreatment of tonsil-derived human MSCs, the tonsil-derived human MSCs were pretreated with NAC prepared in Example 1 at concentrations of 2, 4, 6, 8, 10, 15, and 100 mM for 24 hours, and then cell viability was evaluated.

[2] = test system: tonsil-derived human MSCs (hMSC-T, passage 6); experiment: Antioxidant activity (ROS assay) upon NAC pretreatment followed by PYBR treatment; format: cell-based; conditions: NAC pretreatment 10 mM and 20 mM for 24 hours, then PYBR 5, 10, 20 μg/mL for 24 hours; FIG. 5
Protocol: In order to evaluate antioxidant activity upon NAC treatment, tonsil-derived human MSCs (hMSC-T, passage 6) were seeded in a culture medium at a density of 1×10^4 cells/well. On the following day, NAC was treated at concentrations of 10 mM and 20 mM for 24 hours. Thereafter, the cells were washed with PBS and the medium was replaced, followed by treatment with PYBR at concentrations of 5, 10, and 20 μg/mL. After 24 hours, the cells were washed three times with PBS and incubated in 100 μL of ROS working solution at 37° C. for 30 minutes in the dark. Absorbance was then measured at 488/525 nm (FIG. 4). A group not treated with NAC was used as a positive control.

[3] = test system: tonsil-derived human MSCs (hMSC-T, passage 6); experiment: Cell viability (WST, absorbance at 450 nm) upon NAC pretreatment followed by PYBR treatment; format: cell-based; conditions: NAC pretreatment 10 mM and 20 mM for 24 hours, then PYBR 5, 10, 20 μg/mL for 24 hours; FIG. 3
Protocol: In order to evaluate cell viability upon NAC treatment, tonsil-derived human MSCs (hMSC-T, passage 6) were seeded in a culture medium at a density of 1×10^3 cells/well. On the following day, NAC was treated at concentrations of 10 mM and 20 mM for 24 hours. Thereafter, the cells were washed with PBS and the medium was replaced, followed by treatment with PYBR at concentrations of 5, 10, and 20 μg/mL. After 24 hours, the cells were washed three times with PBS and transferred to fresh medium (100 μL) containing 10 μL of WST solution, and incubated at 37° C. for 2 hours in the dark. Absorbance at 450 nm was then measured to evaluate cell viability (FIG. 2). A group not treated with NAC was used as a positive control.

`CC(=O)NC(CS)C(=O)O` (stereo not drawn) [NAC, 2-acetamido-3-sulfanylpropanoic acid] was tested, and the “cytotoxicity (cell viability)” value [1] was “no cytotoxicity was observed”, the “ROS levels after PYBR treatment” value [2] was “significantly reduced ROS levels” and the “cell viability after PYBR treatment” value [3] was “significantly restored cell viability”.
